Several values for one entry are separate records, joined by “and”; a condition that tells them apart may be missing. Equal values may be shown once.
Tested on: 287954-098-R-J1 tumor spheroid viability
Assay: Anticancer human tumor 287954-098-R-J1 patient-derived Ewing sarcoma cell line growth inhibition
Details: spheroids with HUVEC and MSC; for viability, T/C: stronger effect = lower value
How it was run: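 Single agents and combinations were tested on spheroids built from tumor cells plus HUVEC and hMSC, at half-log dilutions starting at or near clinical Cmax, else 10 microM; final DMSO 0.25% (v/v).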
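Further: spheroids exposed to compound for 7 days before viability readout.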
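Wherever viability, T/C is given: luminescent signal taken as surrogate of viable cell content; 100% = DMSO vehicle control viability and lower means growth inhibition.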

Work on Cc1sc2c(c1C)C(c1ccc(Cl)cc1)=NC(CC(=O)Nc1ccc(O)cc1)c1nnc(C)n1-2 (configuration not stated) + Cn1nnc2c(C(N)=O)ncn2c1=O yielded an IC50 (curve of first compound, second compound 1 µM) of 954 nM, an IC50 (curve of first compound, second compound 3.16 µM) of 624 nM and an IC50 (curve of first compound, second compound 10 µM) of 1110 nM. It also gave an IC50 (curve of first compound, second compound 31.6 µM) of 624 nM, an IC50 (curve of first compound, second compound 100 µM) of 181 nM and a viability, T/C (second compound 1 µM, first compound 0.00949 µM) of 112%. The viability, T/C (second compound 1 µM, first compound 0.03 µM) was 117%, the viability, T/C (second compound 1 µM, first compound 0.0949 µM) was 111% and the viability, T/C (second compound 1 µM, first compound 0.3 µM) was 101%. The viability, T/C (second compound 1 µM, first compound 0.949 µM) was 50.2%, the viability, T/C (second compound 1 µM, first compound 3 µM) was 4.34% and the viability, T/C (second compound 3.16 µM, first compound 0.00949 µM) was 110%. The viability, T/C (second compound 3.16 µM, first compound 0.03 µM) was 113%, the viability, T/C (second compound 3.16 µM, first compound 0.0949 µM) was 123% and the viability, T/C (second compound 3.16 µM, first compound 0.3 µM) was 91.9%. For the same compound, the viability, T/C (second compound 3.16 µM, first compound 0.949 µM) was 25.9%, the viability, T/C (second compound 3.16 µM, first compound 3 µM) was 2.69% and the viability, T/C (second compound 10 µM, first compound 0.00949 µM) was 113%. For the same compound, the viability, T/C (second compound 10 µM, first compound 0.03 µM) was 122%, the viability, T/C (second compound 10 µM, first compound 0.0949 µM) was 122% and the viability, T/C (second compound 10 µM, first compound 0.3 µM) was 100%. It also gave a viability, T/C (second compound 10 µM, first compound 0.949 µM) of 58.3%, a viability, T/C (second compound 10 µM, first compound 3 µM) of 2.44% and a viability, T/C (second compound 31.6 µM, first compound 0.00949 µM) of 114%. For the same compound, the viability, T/C (second compound 31.6 µM, first compound 0.03 µM) was 130%, the viability, T/C (second compound 31.6 µM, first compound 0.0949 µM) was 121% and the viability, T/C (second compound 31.6 µM, first compound 0.3 µM) was 113%. For the same compound, the viability, T/C (second compound 31.6 µM, first compound 0.949 µM) was 13.7%, the viability, T/C (second compound 31.6 µM, first compound 3 µM) was 1.92% and the viability, T/C (second compound 100 µM, first compound 0.00949 µM) was 105%. For the same compound, the viability, T/C (second compound 100 µM, first compound 0.03 µM) was 115%, the viability, T/C (second compound 100 µM, first compound 0.0949 µM) was 98.2% and the viability, T/C (second compound 100 µM, first compound 0.3 µM) was 12.2%. It also gave a viability, T/C (second compound 100 µM, first compound 0.949 µM) of 2.46% and a viability, T/C (second compound 100 µM, first compound 3 µM) of 2.14%.

Work on Cc1cc(C)c(CNC(=O)c2cc(-c3ccc(CN4CCOCC4)cc3)cc3c2cnn3C2CCCC2)c(=O)[nH]1 + CC[C@@]1(O)C(=O)OCc2c1cc1n(c2=O)Cc2cc3c(CN(C)C)c(O)ccc3nc2-1 yielded an IC50 (curve of first compound, second compound 0.003 µM) of over 10000 nM, an IC50 (curve of first compound, second compound 0.00949 µM) of over 10000 nM and an IC50 (curve of first compound, second compound 0.03 µM) of under 31.6 nM. For the same compound, the IC50 (curve of first compound, second compound 0.0949 µM) was under 31.6 nM, the IC50 (curve of first compound, second compound 0.3 µM) was under 31.6 nM and the viability, T/C (second compound 0.003 µM, first compound 0.0316 µM) was 104%. It also gave a viability, T/C (second compound 0.003 µM, first compound 0.1 µM) of 106%, a viability, T/C (second compound 0.003 µM, first compound 0.316 µM) of 98.6% and a viability, T/C (second compound 0.003 µM, first compound 1 µM) of 96.5%. The viability, T/C (second compound 0.003 µM, first compound 3.16 µM) was 102%, the viability, T/C (second compound 0.003 µM, first compound 10 µM) was 119% and the viability, T/C (second compound 0.00949 µM, first compound 0.0316 µM) was 100%. For the same compound, the viability, T/C (second compound 0.00949 µM, first compound 0.1 µM) was 114%, the viability, T/C (second compound 0.00949 µM, first compound 0.316 µM) was 102% and the viability, T/C (second compound 0.00949 µM, first compound 1 µM) was 108%. For the same compound, the viability, T/C (second compound 0.00949 µM, first compound 3.16 µM) was 104%, the viability, T/C (second compound 0.00949 µM, first compound 10 µM) was 104% and the viability, T/C (second compound 0.03 µM, first compound 0.0316 µM) was 12.5%. The viability, T/C (second compound 0.03 µM, first compound 0.1 µM) was 42.9%, the viability, T/C (second compound 0.03 µM, first compound 0.316 µM) was 21.1% and the viability, T/C (second compound 0.03 µM, first compound 1 µM) was 36.1%. It also gave a viability, T/C (second compound 0.03 µM, first compound 3.16 µM) of 28.2%, a viability, T/C (second compound 0.03 µM, first compound 10 µM) of 18.9% and a viability, T/C (second compound 0.0949 µM, first compound 0.0316 µM) of 2.57%. For the same compound, the viability, T/C (second compound 0.0949 µM, first compound 0.1 µM) was 2.37%, the viability, T/C (second compound 0.0949 µM, first compound 0.316 µM) was 2.24% and the viability, T/C (second compound 0.0949 µM, first compound 1 µM) was 2.24%. The viability, T/C (second compound 0.0949 µM, first compound 3.16 µM) was 2.58%, the viability, T/C (second compound 0.0949 µM, first compound 10 µM) was 2.04% and the viability, T/C (second compound 0.3 µM, first compound 0.0316 µM) was 2.22%. For the same compound, the viability, T/C (second compound 0.3 µM, first compound 0.1 µM) was 2.08%, the viability, T/C (second compound 0.3 µM, first compound 0.316 µM) was 2.15% and the viability, T/C (second compound 0.3 µM, first compound 1 µM) was 2.38%. The viability, T/C (second compound 0.3 µM, first compound 3.16 µM) was 2.39% and the viability, T/C (second compound 0.3 µM, first compound 10 µM) was 1.61%.

With Cc1sc2c(c1C)C(c1ccc(Cl)cc1)=NC(CC(=O)Nc1ccc(O)cc1)c1nnc(C)n1-2 (configuration not stated) the viability, T/C (compound 0.00949 µM) was 113% and 114% and 104%, the viability, T/C (compound 0.03 µM) was 113% and 116% and 107% and the viability, T/C (compound 0.0949 µM) was 116% and 126% and 112%. For the same compound, the viability, T/C (compound 0.3 µM) was 86.4% and 108% and 84.2%, the viability, T/C (compound 0.949 µM) was 41% and 29% and 17.1% and the viability, T/C (compound 3 µM) was 4.42% and 2.62% and 6.59%. For the same compound, the IC50 (curve of compound) was 747 nM and 699 nM and 539 nM.
